Measurements: publication PMC10831071, “Reaction hijacking inhibition of Plasmodium falciparum asparagine tRNA synthetase” (Nature Communications, 2024)
Values joined by “and” are separate entries in the source; they are usually repeats but may differ in a detail not shown here. Equal entries are not always repeated. Where two headings read alike, the source gives them in different places.

Key:
[1] = tested on: P. falciparum Dd2-B2 clone; assay: microbe, parasite or virus in culture; assay type: cell-based, Plasmodium falciparum
Description: Wells were monitored daily by smear during the first 7 days to ensure parasite clearance, during which media was changed daily. […] Whole-genome sequencing analysis employed MiSeq data from libraries of 2 × 300 bp paired end reads.

[2] = tested on: DSM265-selected recrudescent Dd2-B2 cultures (G7, F3); assay: Sensitivity of DSM265-selected bulk recrudescent cultures; assay type: cell-based, Plasmodium falciparum; conditions: for IC50: Plasmodium falciparum
[3] = target: PfAsnRS (Plasmodium falciparum, UniProt O96198); assay: biochemical; conditions: for ATP consumption: PfAsnRS, normalised to 1 (Fig 3C)
[4] = tested on: P. falciparum (3D7); assay: Activity against P. falciparum 3D7 cultures, 72 h (PfLDH growth inhibition / flow cytometry); assay type: cell-based, Plasmodium falciparum
Description: Antimalarial activity against P. falciparum 3D7 was tested by TCGLS, Kolkata, India, using the lactate dehydrogenase (PfLDH) growth inhibition assay. […] Plates were shaken to ensure mixing and were placed in the dark at 21 °C for 20 min. […] P. falciparum strain (3D7) was obtained from BEI Resources.
Viability was assessed in the second cycle by flow cytometry, following labeling with 2 μM Syto-61 (Thermo Fisher Scientific)[48],[49]. Viability represents the parasitemia normalized to untreated and “kill” controls that were treated with 2 μM dihydroartemisinin (DHA; Sigma-Aldrich) for 48–72 h. For drug pulse assays, tightly synchronized Cam3.II-rev[50] parasites (1–1.5% parasitemia, 0.2% final hematocrit) were added to the plates and incubated for 6 h. Drugs were removed and the parasitemia assessed in the trophozoite stage of the next cycle.

[5] = target: T1, HsAsnRS (Homo sapiens, UniProt O43776); assay: ATP consumption assay (Kinase-Glo), HsAsnRS; assay type: biochemical; conditions: for ATP consumption: HsAsnRS, normalised to 1 (Fig 3C)
T1 construct: HsAsnRS (residues M1–P548) and CDHsAsnRS (residues A98–P548); His6 (N, cleaved yes); made in house; host or cells: E. coli BL21 (DE3), pET11a
T1 sequence (O43776 1-548): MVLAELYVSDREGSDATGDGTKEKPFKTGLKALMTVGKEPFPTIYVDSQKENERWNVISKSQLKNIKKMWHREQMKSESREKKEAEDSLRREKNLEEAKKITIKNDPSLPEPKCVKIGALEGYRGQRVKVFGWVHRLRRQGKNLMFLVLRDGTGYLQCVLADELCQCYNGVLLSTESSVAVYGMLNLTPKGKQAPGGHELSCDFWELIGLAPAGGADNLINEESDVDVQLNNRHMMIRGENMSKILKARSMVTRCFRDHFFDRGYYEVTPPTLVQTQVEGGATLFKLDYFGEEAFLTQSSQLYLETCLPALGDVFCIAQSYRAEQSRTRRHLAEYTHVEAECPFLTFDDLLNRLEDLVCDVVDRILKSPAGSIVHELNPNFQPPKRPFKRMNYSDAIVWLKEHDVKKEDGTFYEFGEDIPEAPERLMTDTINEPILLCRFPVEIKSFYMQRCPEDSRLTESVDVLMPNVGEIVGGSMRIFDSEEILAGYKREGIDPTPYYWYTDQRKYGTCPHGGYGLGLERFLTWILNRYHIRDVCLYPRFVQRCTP

[6] = Plasmodium falciparum, 3D7, 72 h, read-out: Pf3D7 IC50(72 h), 72 h, mean ± SD or duplicate values
[7] = Plasmodium falciparum, 3D7, read-out: activity against 3D7 cultures, value of earlier manuscript version quoted by reviewer, peer review file
[8] = read-out: Pf3D7 IC50 (72h), individual biological repeats (source data of Table 1)
[9] = Plasmodium falciparum, 3D7, 72 h, read-out: Pf3D7 IC50 (72h), individual biological repeats (source data of Table 1)

Sequence of PfAsnRS (O96198 entry or part of it): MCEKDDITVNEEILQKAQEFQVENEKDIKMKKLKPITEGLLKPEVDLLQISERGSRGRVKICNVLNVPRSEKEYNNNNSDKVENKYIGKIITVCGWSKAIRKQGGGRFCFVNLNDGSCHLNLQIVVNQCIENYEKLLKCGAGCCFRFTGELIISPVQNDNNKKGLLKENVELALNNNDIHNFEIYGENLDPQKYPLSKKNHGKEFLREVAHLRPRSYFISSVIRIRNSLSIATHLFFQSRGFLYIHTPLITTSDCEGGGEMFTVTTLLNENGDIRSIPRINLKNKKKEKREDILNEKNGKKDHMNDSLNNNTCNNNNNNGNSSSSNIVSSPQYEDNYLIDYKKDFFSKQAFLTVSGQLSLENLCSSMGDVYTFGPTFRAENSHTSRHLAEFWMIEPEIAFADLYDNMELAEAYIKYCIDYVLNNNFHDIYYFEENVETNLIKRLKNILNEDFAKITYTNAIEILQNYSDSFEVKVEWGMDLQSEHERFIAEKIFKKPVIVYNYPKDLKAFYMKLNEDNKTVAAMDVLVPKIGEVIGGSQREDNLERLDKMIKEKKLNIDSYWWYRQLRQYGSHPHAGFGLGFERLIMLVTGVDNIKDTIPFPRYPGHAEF

**Q.** For Cc1cc(Nc2ccc(S(F)(F)(F)(F)F)cc2)n2nc(C(C)(F)F)nc2n1 [DSM265], which IC50 ([1]; Plasmodium falciparum, DD2, read-out: Mean IC50 + SEM (N)) is on record?
**A.** 0.0226 µM

**Q.** And the “Minimum Inoculum for Resistance (MIR)” value ([1]; reference selection at 5 × IC50 (58 nM), 2 × 10^5 parasites per well, 96 wells)?
**A.** 1.4 × 10^6 parasites

**Q.** What about the recrudescent wells ([1]; reference selection at 5 × IC50 (58 nM), 96-well plate) of the same compound?
**A.** 14 and 14/96

**Q.** And the “Fold Shift” value ([2]; DSM265_F3 vs Dd2-B2 parent)?
**A.** 2.5

**Q.** What about the “Fold Shift” value ([2]; DSM265_G7 vs Dd2-B2 parent) of the same compound?
**A.** 3.1

**Q.** What about the IC50 ([2]; read-out: Mean IC50 + SEM (N), recrudescent culture DSM265_F3) of the same compound?
**A.** 0.0566 µM

**Q.** What about the IC50 ([2]; read-out: Mean IC50 + SEM (N), recrudescent culture DSM265_G7) of the same compound?
**A.** 0.071 µM

**Q.** Which IC50 [3] does the source give for Nc1ncnc2cc(-c3cccc(OS(N)(=O)=O)c3)sc12 [OSM-LO-80] here?
**A.** > 100 µM

**Q.** And the ATP consumption ([3]; 0.1 μM OSM-LO-80, 0.1 µM)?
**A.** 0.9991

**Q.** And the ATP consumption ([3]; 1 μM OSM-LO-80, 1 µM)?
**A.** 0.918 and 0.9991

**Q.** What about the ATP consumption ([3]; 3 μM OSM-LO-80, 3 µM) of the same compound?
**A.** 0.8254 and 0.8439

**Q.** What about the ATP consumption ([3]; 10 μM OSM-LO-80, 10 µM) of the same compound?
**A.** 0.7121 and 0.7363

**Q.** What about the ATP consumption ([3]; 30 μM OSM-LO-80, 30 µM) of the same compound?
**A.** 0.597 and 0.5984

**Q.** And the ATP consumption ([3]; 100 μM OSM-LO-80, 100 µM)?
**A.** 0.5737 and 0.5517

**Q.** And the IC50 [4, 6]?
**A.** 5.1 ± 3.2 µM

**Q.** What about the IC50 [4, 7] of the same compound?
**A.** 2.1 µM

**Q.** What about the IC50 [4, 8] of the same compound?
**A.** 1.72 µM and 1.7 µM and 8 µM and 8.04 µM and 8.28 µM and 7.95 µM and 2.49 µM and 2.41 µM

**Q.** And the ATP consumption ([5]; 0.1 μM OSM-LO-80)?
**A.** 0.9993 and 0.9657 and 0.9905

**Q.** And the IC50 ([5]; 0.2 μM HsAsnRS, E. coli tRNA present, 37 °C, 1 h (Fig. 3C, D))?
**A.** > 100 µM

**Q.** What about the ATP consumption ([5]; 1 μM OSM-LO-80) of the same compound?
**A.** 1 and 0.9892 and 0.9767

**Q.** What about the ATP consumption ([5]; 3 μM OSM-LO-80) of the same compound?
**A.** 0.9847 and 1 and 0.9888

**Q.** What about the ATP consumption ([5]; 10 μM OSM-LO-80) of the same compound?
**A.** 1.009 and 0.9926 and 0.9928

**Q.** And the ATP consumption ([5]; 30 μM OSM-LO-80)?
**A.** 0.9786 and 0.9717 and 1

**Q.** What about the ATP consumption ([5]; 100 μM OSM-LO-80) of the same compound?
**A.** 0.9628 and 0.9785 and 0.9921

**Q.** With Nc1ncnc2cc(-c3cccc(COS(N)(=O)=O)c3)sc12 [OSM-LO-81] as the compound, how does the IC50 [4, 6] read?
**A.** 0.93 ± 0.24 µM

**Q.** What about the IC50 [4, 9] of the same compound?
**A.** 1.1 µM

**Q.** What about the IC50 [4, 7] of the same compound?
**A.** 0.9 µM

**Q.** What about the IC50 [4, 8] of the same compound?
**A.** 1.33 µM and 0.74 µM and 0.761 µM and 0.909 µM and 0.753 µM

**Q.** How did the “antimalarial potency (in words)” value ([4]; 3D7 cultures) turn out when NS(=O)(=O)c1cccc(-c2ccc3c(=O)[nH]cnc3c2)c1 [OSM-LO-87] was run?
**A.** no antimalarial potency

**Q.** And the IC50 [4, 6]?
**A.** > 25 µM

**Q.** And the IC50 [4, 9]?
**A.** > 25 µM

**Q.** And the IC50 [4, 8]?
**A.** > 25 µM

**Q.** How did the IC50 [4, 6] turn out when NS(=O)(=O)c1cccc(-c2cc3nc[nH]c(=O)c3s2)c1 [OSM-LO-88] was run?
**A.** 18.7 ± 1.8 µM

**Q.** And the IC50 [4, 9]?
**A.** 19.2 µM

**Q.** And the IC50 [4, 8]?
**A.** 21.9 µM and 18.6 µM and 17.5 µM and 16.5 µM

**Q.** How did the IC50 [4, 6] turn out when NS(=O)(=O)c1cccc(-c2cc3ncnc(N4CCN(Cc5ccc(F)cc5)CC4)c3s2)c1 [OSM-S-137] was run?
**A.** 4.4 ± 3 µM

**Q.** What about the IC50 [4, 8] of the same compound?
**A.** 2.65 µM and 1.2 µM and 6.07 µM and 7.69 µM

**Q.** CNS(=O)(=O)c1cccc(-c2cc3ncnc(N)c3s2)c1 [OSM-S-488] was tested. Which IC50 [4, 9] did it give?
**A.** 12.7 µM

**Q.** What about the IC50 [4, 8] of the same compound?
**A.** 13.8 µM
